Consider 7 compounds from patent US20260138976A1 (Hoffmann-La Roche Inc., priority 2022, published 2026).

Values joined by “and” are separate entries in the source; they are usually repeats but may differ in a detail not shown here. Identical values can stand only once.

For orientation: IC50 means the concentration that gives 50% inhibition. Read a high IC50 as weaker potency.

For experiment [1], the target named is T1, DGKζ (hDGKzeta(1-928)-N-His) (Homo sapiens, UniProt Q13574).
T1 construct: hDGKzeta(1-928)-N-His; His (N); made in house; host or cells: Sf21 insect cells (baculovirus)
Kind of experiment: In vitro DGK inhibition assay, DGKzeta ADP Glo (in house). Format: biochemical. The settings on record: 2 nM DGKζ, 50 μM ATP, 125 uM DLG in liposomes, 1 hour reaction. The method, then:
DGKα and ζ kinases use ATP to phosphorylate the substrate 1,2-dilauroyl-sn-glycerol (DLG, incorporated in the liposomes). ATP is converted to ADP as a result of this enzymatic reaction. After the kinase reaction, an ATP-depletion reagent is added to terminate the kinase reaction and deplete any remaining ATP, leaving only ADP. Second, a detection reagent is added to simultaneously convert ADP to ATP and allow the newly synthesized ATP to be converted to light using a coupled luciferase/luciferin reaction.
Full length DGKα and ζ were expressed in Sf21 insect cells by infecting the cells with the baculovirus stock at MOI of 2. Purification of both enzymes was performed as previously described by Takahashi et al., PeerJ, 2018 (Takahashi, D.; Sakane, F. Expression and purification of human diacylglycerol 5 kinase alpha from baculovirus-infected insect cells for structural studies. PeerJ2018, 6, No. e5449).
A concentrated liposome solution was prepared in assay buffer without DTT and BSA: 2 mM of DLG in 21 mM of total liposome (2 mM DLG/8 mM PS/11 mM PC). The reaction mixtures contain the assay buffer with a final DLG concentration of 125 uM ATP concentrations of 25 μM (for DGKA assay) or 50 μM (for DGKZ assay). The reactions were started by addition of DGK α and ζ kinases at 4 nM and 2 nM final concentrations, respectively. After 1 hour reaction, the amount of ADP formed was detected with the ADP-Glo kinase assay (Promega) according to the manufacturer instructions. Compounds were added in 11-points dose response, starting at […], 1:3 dilutions, with a final DMSO concentration of 2%. The multidrop combi was used as a liquid handler and luminescence was read with 0.5 s by the envision reader (PE).
(ADP-Glo turns the ADP formed in a reaction into a luminescent signal.)

For experiment [2], the system named is primary human T-cells. Nature of the experiment: IL2 secretion measurements (24 h, CD3-stimulated T-cells, PBS counter screen). Format: cell-based. As to conditions: for Emax IL2 (% activation): CD3 condition, normalised to DMSO (neutral) and 20 μM reference compound A1 = 100%; for EC50: CD3-stimulated primary human T-cells, IL2 secretion, fitted sigmoidal curve, read-out: Tcell IL2 CD3 EC50. The method, then: (§1) As readouts for T-cell activation, 1L2 secretion after 24 hours and proliferation after 5 days was measured. Increases in IL2 secretion and proliferation upon compound treatment were assessed as the % of the maximum of reference compound A1. WO 2016/139181 discloses reference compound A1 as example 70. As a counter screen and to make sure that no unwanted TCR-independent activation was triggered, PBS conditions were run for all compounds.
Expanded primary human T-cells were thawed and cultured in RPMI 1640 (Gibco, #61870-010)+5% human serum (HS, Sigma, #H3667)+1 mM Sodium Pyruvate (Gibco, #11360-039)+50 μM 2-mercaptoethanol (Gibco, #31350-010) and 1× Pen-Strep (Life Technologies, #15140122) medium at density of 2 Mio/ml for 3 hours in 5% CO2, 37° C. and 95% humidity. For coating of plates, […] or PBS++ with CD3 antibody (concentration depending on donor and determined by CD3 titrations) was added 100 μl/well to Poly-D Lysine coated 96-well plates. Plates were sealed and incubated at room temperature for 3 hours on a table-top rocking platform. After incubation, plates were washed once with PBS−− and filled with 40 μl/well culture medium only. Compounds were then added (see next section) to medium only plates. After 3 hours of culturing the T-cells, cells were filtered through a cell strainer (Miltenyi Biotech, #130-041-407), counted again and concentration was adjusted to 1.25 Mio/ml.
Cells were then seeded 80 μl/well to the 40 μl/well including dispensed compounds according to plate layout. By adding cells, compounds were further diluted 1:3, and resulting in 100 k cells/120 μl/well. After 24 hours 40 μl of supernatant was collected carefully from the top while not disturbing the cells and transferred into a round bottom 96 well plate. Collected and frozen supernatant was used for detection of IL2 using the IL-2 Human ProQuantum Immunoassay Kit (Invitrogen) or using the Human IL-2 ELISA Kit (Thermo Fisher).
(§2) Compounds were added in a 5 or 6 pt dose response with the Tecan D300e Digital Dispenser, all conditions 3 times more concentrated than the end-concentration, since cells are added afterwards (80 μl cells to 40 μl prepared medium with treatment). The DR was starting at 20 μM or 10 μM final top concentration and a dilution factor of 3.333. The positive control was the reference compound A1 that was added in a dose response as well, additionally to 3 wells of only 20 μM representing the positive stimulator control. All wells were normalized with DMSO to a final concentration of 0.6% (0.2% end-concentration).
The immunoassay is done following the manufacturer's manual (Invitrogen, #A35603). Additional information: For the immunoassay, MicroAmp™ EnduraPlate™ Optical 384-Well plates are used. Frozen supernatant is thawed and centrifuged for 5 minutes at 1000×g, both steps at 4° C. After centrifugation, required sample amount is taken from the top, and in a separate LightCycler V-bottom plate (working plate) diluted with assay dilution buffer, dilution factor depending on the PBS or CD3 condition but at least 1:3. IL-2 standard and blanks are prepared in the same V-bottom plate, standard with a range of 0.0128-5000 pg/ml (extended version). After preparation, 5 μl of sample dilutions or standard/blanks are transferred to the optical 384-well plate (assay plate) and the 10 μl reaction protocol is being followed. For measurement, the QuantStudio 12K Flex system is used. Raw data is extracted and IL-2 concentrations are calculated with the Thermo Fisher online app (apps.thermofisher.com/apps/proquantum).
ELISA is done following the manufacturer's manual (Thermo Fisher Scientific, #88-7025-88). Additional information: For the ELISA Nunc MaxiSorp 96 well plates are used. Frozen supernatant is thawed and centrifuged for 5 minutes at 1000×g, both steps at 4° C. […]
(In general: The purpose of a counterscreen is to sort out artefacts and off-target activity.)

In experiment [3] the test system is primary human T-cells. Nature of the experiment: Proliferation assay (5 days, CellTiter-Glo, CD3-stimulated T-cells). Format: cell-based. The settings on record: for Emax proliferation (% activation): CD3 condition, normalised to DMSO (neutral) and 20 μM reference compound A1 = 100%; for EC50: CD3-stimulated primary human T-cells, 5 days, CellTiter-Glo, fitted sigmoidal curve, read-out: Tcell Proliferation CD3 EC50. On the procedure: as §1
Expanded primary human T-cells are thawed and cultured in RPMI 1640 (Gibco, #61870-010)+5% human serum (HS, Sigma, #H3667)+1 mM Sodium Pyruvate (Gibco, #11360-039)+50 μM 2-mercaptoethanol (Gibco, #31350-010) and 1× Pen-Strep (Life Technologies, #15140122) medium at density of 2 Mio/ml for 3 hours in 5% CO2, 37° C. and 95% humidity. For coating of plates, PBS++ only or PBS++ with CD3 antibody (concentration depending on donor and determined by CD3 titrations) is added 100 μl/well to Poly-D Lysine coated 96-well plates. Plates are sealed and incubated at room temperature for 3 hours on a table-top rocking platform. After incubation, plates are washed once with PBS−− and filled with 40 μl/well culture medium only. Compounds are then added (see next section) to medium only plates. After 3 hours of culturing the T-cells, cells are filtered through a cell strainer (Miltenyi Biotech, #130-041-407), counted again and concentration is adjusted to 1.25 Mio/ml.
Cells are then seeded 80 μl/well to the 40 μl/well including dispensed compounds according to plate layout. By adding cells, compounds are further diluted 1:3, and resulting in 100 k cells/120 μl/well. After 48 hours 40 μl of supernatant is collected carefully from the top while not disturbing the cells. Cells are assessed for proliferation 5 days later by measuring […] using CellTiterGlo (Promega).
as §2
After 5 days, for detection of ATP which is directly proportional to the number of cells present per well, the CellTiter-Glo® 2.0 Reagent is used. After visual control for toxicity or precipitations of the tested compounds, the plates are equilibrated to room temperature for 45 minutes. CellTiter-Glo® 2.0 Reagent is equilibrated to room temperature as well. After equilibration, an equal amount of CellTiter-Glo reagent is added to the cells (80 μl/well) with an electronic multichannel pipette. Plates are placed on a rocking platform for 15 minutes at room temperature. After incubation, the bottom of the plates is sealed with backing tape. Luminescence is measured with PHERAstar FSX (interval time 0.5 sec, gain 3000, focal height 15 mm) and exported as CSV file for analysis in Genedata screener.
CD3 and PBS plates were analysed separately in Genedata Screener using Roche Normalization PCT_POS_CTRL with DMSO set as Neutral Control and 20 μM of the reference compound A1 set as Stimulator Control/100%.
For CD3 conditions EC50 and Emax of the fitted sigmoidal curve were reported. If no curve could be fitted, the EC50 was reported as blank field and the Emax was based on individual data points. […] Compounds which activate unstimulated cells (see IL2 measurements) or compounds which negatively affected viability were flagged.
For orientation: ATP-based viability assays read luminescence as a measure of living cells.

T1 sequence (Q13574 whole entry): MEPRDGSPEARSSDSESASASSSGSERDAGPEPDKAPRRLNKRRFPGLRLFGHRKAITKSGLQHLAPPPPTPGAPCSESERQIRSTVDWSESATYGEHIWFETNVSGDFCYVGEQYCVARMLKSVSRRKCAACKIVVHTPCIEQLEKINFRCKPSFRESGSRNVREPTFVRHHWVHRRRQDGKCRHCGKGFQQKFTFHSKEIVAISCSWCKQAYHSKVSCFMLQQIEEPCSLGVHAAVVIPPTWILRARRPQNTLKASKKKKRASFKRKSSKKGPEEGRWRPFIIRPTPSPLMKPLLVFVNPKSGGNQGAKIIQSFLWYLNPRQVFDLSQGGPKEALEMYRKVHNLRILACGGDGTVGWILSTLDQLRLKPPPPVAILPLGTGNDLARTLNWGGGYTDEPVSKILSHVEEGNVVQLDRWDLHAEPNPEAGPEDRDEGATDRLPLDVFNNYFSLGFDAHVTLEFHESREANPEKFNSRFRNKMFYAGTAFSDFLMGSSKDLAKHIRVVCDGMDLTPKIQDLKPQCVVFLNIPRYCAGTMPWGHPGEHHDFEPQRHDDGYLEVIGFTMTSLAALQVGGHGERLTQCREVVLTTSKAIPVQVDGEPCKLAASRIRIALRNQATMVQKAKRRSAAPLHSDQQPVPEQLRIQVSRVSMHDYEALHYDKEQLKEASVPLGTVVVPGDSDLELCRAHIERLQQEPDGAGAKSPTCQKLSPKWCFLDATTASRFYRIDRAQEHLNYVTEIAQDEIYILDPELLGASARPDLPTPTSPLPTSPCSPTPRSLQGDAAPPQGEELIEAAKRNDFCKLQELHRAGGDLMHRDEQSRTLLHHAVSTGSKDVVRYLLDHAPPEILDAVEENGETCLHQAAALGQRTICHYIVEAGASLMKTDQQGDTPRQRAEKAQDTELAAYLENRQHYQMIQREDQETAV

`COc1ccc(-c2ccc(CN3C(=O)[C@@H](N)CS(=O)(=O)c4ccc(-c5nnc(C(C)(C)C#N)o5)cc43)cc2)cc1` [Example 45, 2-[5-[(3R)-3-amino-5-[[4-(4-methoxyphenyl)phenyl]methyl]-1,1,4-trioxo-2,3-dihydro-1λ^6,5-benzothiazepin-7-yl]-1,3,4-oxadiazol-2-yl]-2-methyl-propanenitrile]: the IC50 in experiment [1] was 467 nM and 3210 nM.
On to `CC(C)(C)c1nnc(-c2ccc3c(c2)N(Cc2ccc(-c4nc(C5CC5)no4)cc2)C(=O)[C@@H](N)CS3(=O)=O)o1` [Example 29, (3R)-3-amino-7-(5-tert-butyl-1,3,4-oxadiazol-2-yl)-5-[[4-(3-cyclopropyl-1,2,4-oxadiazol-5-yl)phenyl]methyl]-1,1-dioxo-2,3-dihydro-1λ^6,5-benzothiazepin-4-one], for which the “Emax IL2 (% activation)” value with primary human T-cells [2] is 156 % activation. Moreover, the EC50 with primary human T-cells [2] (Homo sapiens, T-cell) came to 956 nM; in the experiment on primary human T-cells [3] (Homo sapiens, T-cell, 120 h) it was 844 nM. In addition, the “Emax proliferation (% activation)” value in the experiment with primary human T-cells [3] is given as 208 % activation.
Regarding `COC(=O)N1CC2CC(c3nnc(-c4ccc5c(c4)N(Cc4ccc(-c6noc(C(F)(F)F)n6)cc4)C(=O)[C@@H](N)CS5(=O)=O)o3)(C2)C1` [Example 61, methyl 1-[5-[(3R)-3-amino-1,1,4-trioxo-5-[[4-[5-(trifluoromethyl)-1,2,4-oxadiazol-3-yl]phenyl]methyl]-2,3-dihydro-1λ^6,5-benzothiazepin-7-yl]-1,3,4-oxadiazol-2-yl]-3-azabicyclo[3.1.1]heptane-3-carboxylate], in the experiment with primary human T-cells [2], the EC50 amounted to 606 nM and the “Emax IL2 (% activation)” value was 241 % activation. For the same compound, in the experiment on primary human T-cells [3], the EC50 came out at 216 nM and the “Emax proliferation (% activation)” value is given as 228 % activation.
Regarding `N[C@H]1CS(=O)(=O)c2ccc(-c3nnc(N4CCC(F)(F)CC4)o3)cc2N(Cc2ccc(-c3nnc(C(F)F)o3)cc2)C1=O` [Example 70, (3R)-3-amino-5-[[4-[5-(difluoromethyl)-1,3,4-oxadiazol-2-yl]phenyl]methyl]-7-[5-(4,4-difluoro-1-piperidyl)-1,3,4-oxadiazol-2-yl]-1,1-dioxo-2,3-dihydro-1λ^6,5-benzothiazepin-4-one], in the experiment with primary human T-cells [2], the “Emax IL2 (% activation)” value amounted to 43 % activation. Further, the EC50 in the experiment on primary human T-cells [2] (Homo sapiens, T-cell) is more than 10000 nM; in the experiment on primary human T-cells [3] (Homo sapiens, T-cell, 120 h), 2760 nM. Besides, in the experiment on primary human T-cells [3], the “Emax proliferation (% activation)” value is reported as 76 % activation.
With `CC(C)(C)c1nnc(-c2ccc3c(c2)N(Cc2ccc(-c4cc(C(F)(F)F)no4)cc2)C(=O)[C@@H](N)CS3(=O)=O)o1` [Example 31, (3R)-3-amino-7-(5-tert-butyl-1,3,4-oxadiazol-2-yl)-1,1-dioxo-5-[[4-[3-(trifluoromethyl)isoxazol-5-yl]phenyl]methyl]-2,3-dihydro-1λ^6,5-benzothiazepin-4-one], the “Emax IL2 (% activation)” value in the experiment with primary human T-cells [2] turned out to be 133 % activation. The EC50 in the experiment with primary human T-cells [2] (Homo sapiens, T-cell) stood at 906 nM; in the experiment with primary human T-cells [3] (Homo sapiens, T-cell, 120 h), 349 nM. The “Emax proliferation (% activation)” value with primary human T-cells [3] is on record as 83 % activation.
With `CC(C)(C#N)c1nnc(-c2ccc3c(c2)N(Cc2ccc(-c4ccc(C(F)F)cn4)cc2)C(=O)[C@@H](N)CS3(=O)=O)o1` [Example 40, 2-[5-[(3R)-3-amino-5-[[4-[5-(difluoromethyl)-2-pyridyl]phenyl]methyl]-1,1,4-trioxo-2,3-dihydro-1λ^6,5-benzothiazepin-7-yl]-1,3,4-oxadiazol-2-yl]-2-methyl-propanenitrile], the “Emax IL2 (% activation)” value in the experiment on primary human T-cells [2] came out at 105 % activation. For the same compound, the EC50 amounted to 3790 nM in the experiment on primary human T-cells [2] (Homo sapiens, T-cell) and 2480 nM in the experiment on primary human T-cells [3] (Homo sapiens, T-cell, 120 h). Further, in the experiment on primary human T-cells [3], the “Emax proliferation (% activation)” value was 118 % activation.
On the same counts, the results for `COC(F)(c1nnc(-c2ccc3c(c2)N(Cc2ccc(-c4nnc(C(F)(F)F)o4)cc2)C(=O)[C@@H](N)CS3(=O)=O)o1)C(F)(F)F` (stereo partly drawn) [Example 67, (3R)-3-amino-1,1-dioxo-7-[5-(1,2,2,2-tetrafluoro-1-methoxy-ethyl)-1,3,4-oxadiazol-2-yl]-5-[[4-[5-(trifluoromethyl)-1,3,4-oxadiazol-2-yl]phenyl]methyl]-2,3-dihydro-1λ^6,5-benzothiazepin-4-one] are 168 % activation, 739 nM, 262 nM and 119 % activation.
